# Test results taken from patent US8236820B2, “Anti-inflammatory compounds and uses thereof” (priority 2007, dated 2012).
# pIC50: −log10 of the molar value.
# Key:
# [1] = system: spermidine/spermine N^1-acetyltransferase (SSAT); assay: SSAT enzymatic activity in HT-29 cells; assay type: cell-based, human; conditions: HT-29, 24 h; phospho-sulindac I 85 μM; P<0.05 versus control
# Method: (§1) SW480 cells were incubated without or with phospho-sulindac I (P-S) for up to 24 h and SSAT activity was determined at each time point by determining the amount of labelled N1-acetylspermidine synthesized from [^14C]acetyl-CoA and unlabeled spermidine.
# (§2) The effect of phospho-sulindac I on polyamines is mediated, at least in part, by activation of SSAT by phospho-sulindac I. It is known that conventional sulindac induces SSAT activity (Babbar et al., Cyclooxygenase-independent induction of apoptosis by sulindac sulfone is mediated by polyamines in colon cancer. J Biol Chem 2003; 278(48):47762-75.). Incubation of HT-29 and SW480 cells with 85 μM phospho-sulindac I for 24 h leads to a 3- and 4.4-fold increase of SSAT activity (P<0.05 versus control), respectively. On the other hand, incubation with sulindac led to a 1.5 and 2.5-fold increase of SSAT activity (P<0.05 versus control) in HT-29 and SW480 cells, respectively.
# MDA-MB231 = assay: Cell viability (MTT) assay, 24-h IC50, MDA-MB231; assay type: cell-based, human; conditions: Homo sapiens, MDA-MB-231, 24 h, read-out: 24-h IC50
# HT29 = assay: Cell viability (MTT) assay, 24-h IC50, HT29; assay type: cell-based, human; conditions: Homo sapiens, HT-29, 24 h, read-out: 24-h IC50
# MIA-PaCa-2 = assay: Cell viability (MTT) assay, 24-h IC50, MIA-PaCa-2; assay type: cell-based, human; conditions: Homo sapiens, MIA PaCa-2, 24 h, read-out: 24-h IC50
# SW480 cells = assay: Polyamine levels in SW480 cells; assay type: cell-based, human
# Source text: Further evidence of the synergy between the two compounds was provided by their effect on polyamine levels. Conventional sulindac is known to reduce polyamine levels in colon cancer cells (Yerushalmi et al. Role of polyamines in arginine-dependent colon carcinogenesis in Apc(Min) (/+) mice. Mol Carcinog 2006; 45(10):764-73.; Choi et al. Combination of 5-fluorouracil and N1,N11-diethylnorspermine markedly activates spermidine/spermine N1-acetyltransferase expression, depletes polyamines, and synergistically induces apoptosis in colon carcinoma cells. J Biol Chem 2005; 280(5):3295-304; and Basuroy and Gerner. Emerging concepts in targeting the polyamine metabolic pathway in epithelial cancer chemoprevention and chemotherapy. J Biochem (Tokyo) 2006; 139(1):27-33).
# [2] = system: MDA-MB 231 human breast cancer cells; assay: Annexin V and propidium iodide staining in MDA-MB231; assay type: cell-based; conditions: MDA-MB231, compound at its IC50, 24 h
# Method: Annexin V and propidium iodide (PI) staining: Cells were seeded at a density of 1×10^5 cells/well and treated for 24 h with various concentrations of each compound or equivalent volumes of DMSO. Briefly, after incubation with the test compounds, cells were trypsinized and stained with Annexin V-FITC (Invitrogen) and PI (0.5 μg/ml). Following incubation at room temperature for 15 min in the dark, annexin V-FITC and PI fluorescence intensities were analyzed by FACScaliber (BD Bioscience). Annexin V (+)/PI (−) cells are in early apoptosis, annexin V (+)/PI (+) cells are in late apoptosis (secondary necrosis), and annexin V (−)/ PI (+) cells are necrotic cells.
# (§3) As summarized in Table 2 below, in MDA-MB231 cells, all six compounds, each used at its IC50 concentration, a) inhibited cell proliferation between 6% and 50% compared to controls; b) induced both early and late apoptosis, as well as necrosis; and c) inhibited the G1 to S cell cycle phase transition. In this Table, the values for proliferation are the percentage of the corresponding control values. Those for apoptosis and necrosis refer to the percentage of cells in each category with respect to the entire cell population, and are to be compared to the control (vehicle only-treated) cells (uppermost row).
# [3] = system: MDA-MB 231 human breast cancer cells; assay: Cell proliferation assay (BrdU incorporation) in MDA-MB231; assay type: cell-based; conditions: MDA-MB231, each compound at its IC50 concentration
# Source text: Cell proliferation assay: To determine cell proliferation, we measured the incorporation of 5-bromo-2′-deoxyuridine (BrdU) into newly synthesized cellular DNA, following the manufacture's instructions (BD Biosciences, San Jose, Calif.).
# as §3
# SW480 = assay: Cell viability (MTT) assay, 24-h IC50, SW480; assay type: cell-based, human; conditions: Homo sapiens, SW480, 24 h, read-out: 24-h IC50
# [4] = assay type: in vivo; conditions: 5 days oral gavage
# Method: Phospho-sulindac I lacked gastrointestinal toxicity in mice; gastrointestinal toxicity is the major side effect of sulindac as well as of the entire class of NSAIDs. We evaluated in mice the potential toxicity of phospho-sulindac I. Three groups, each consisting of 8 female C57BL/6J+/+mice 6 wks of age, were treated for 5 days by oral gavage with equimolar amounts of phospho-sulindac I (317 mg/kg/d) or conventional sulindac (200 mg/kg/day) or vehicle. Mice were weighed at time 0 and on days 3 and 5. Mice surviving to the end of the study were euthanized and necropsied.
# The stomachs of sulindac-treated animals were larger than those of the other two groups and in some the liver appeared hyperemic.
# Salmonella typhimurium = assay: Ames mutagenicity assay (reverse mutations); assay type: cell-based; conditions: two strains, presence and absence of S9 activation
# Method: We assessed the safety of phospho-sulindac I by examining its genotoxicity by the Ames test and its gastrointestinal and other toxicity by performing a toxicological study in mice.
# The mutagenic potential of phospho-sulindac I was evaluated by measuring its ability to induce reverse mutations at selected loci of two strains of Salmonella typhimurium in the presence and absence of S9 activation.
# [5] = system: spermidine/spermine N^1-acetyltransferase (SSAT); assay: SSAT enzymatic activity in SW480 cells; assay type: cell-based, human
# Method: as §1, §2
smiles,measurement,setting,value
CCOP(=O)(OCC)OCCCCOC(=O)CC1=C(C)/C(=C/c2ccc([S+](C)[O-])cc2)c2ccc(F)cc21 (centres unmarked) [Phospho-sulindac I],increase of SSAT activity,[1],3 fold
same,pIC50,MDA-MB231,4.77
same,pIC50,HT29,4.19
same,pIC50,MIA-PaCa-2,4.06
same,level of putrescine,SW480 cells,91 % of control values
same,level of spermidine,SW480 cells,34 % of control values
same,level of spermine,SW480 cells,9 % of control values
same,Necrosis (%),[2]; % of entire cell population (control 0.6),1.1%
same,Early apoptosis (%),[2]; % of entire cell population (control 1.4),1.7%
same,Late apoptosis (%),[2]; % of entire cell population (control 2.0),4.7%
same,Proliferation (% control),[3],52 % control
same,pIC50,SW480,4.01
same,"inspection of the heart, lungs, spleen, kidneys and liver",[4]; 317 mg/kg/d,no abnormalities
same,gastrointestinal or other toxicity (necropsy),"[4]; phospho-sulindac I 317 mg/kg/d, sulindac 200 mg/kg/day",no evidence of gastrointestinal or other toxicity
same,mortality,"[4]; phospho-sulindac I 317 mg/kg/d, sulindac 200 mg/kg/day, 8 mice/group",0%
same,body weight at end of study,"[4]; phospho-sulindac I 317 mg/kg/d, sulindac 200 mg/kg/day, start 16.3±1.2, mean±SD",15.7 ± 1.2 g
same,genotoxicity (mutagenic potential),Salmonella typhimurium,negative for genotoxicity
same,induction of SSAT compared to vehicle-treated controls,"[5]; SW480, 85 μM, 12 h of incubation",4 fold
same,maximum increase of SSAT,"[5]; SW480, 85 μM, 18 h of incubation",5.5 fold
same,increase of SSAT activity,"[5]; SW480, 24 h, phospho-sulindac I 85 μM, P<0.05 versus control",4.4 fold
